Bridge positions count the residues as written; N and C are the ends. Square brackets hold non-standard residues; d marks the D form. Peptide text beside a SMILES is read from it. * marks the point of attachment. Bip(4'-COOH) = N[C@@H](Cc1ccc(-c2ccc(C(=O)O)cc2)cc1)C(=O)O; Phe(3-CF3) = N[C@@H](Cc1cccc(C(F)(F)F)c1)C(=O)O; Phe(4-COOH) = N[C@@H](Cc1ccc(C(=O)O)cc1)C(=O)O; Bip = N[C@@H](Cc1ccc(-c2ccccc2)cc1)C(=O)O; Phe(3-Me) = Cc1cccc(C[C@H](N)C(=O)O)c1; Gla = N[C@@H](CC(C(=O)O)C(=O)O)C(=O)O; Cha = N[C@@H](CC1CCCCC1)C(=O)O; Carboxymethyl = O=C(O)C*; NMeA = CN[C@@H](C)C(=O)O; Nle = CCCC[C@H](N)C(=O)O; Orn = NCCC[C@H](N)C(=O)O; Dab = NCC[C@H](N)C(=O)O
Molecular target: T1, Alexa fluor-647 labeled human PD-L1-Ig binding to Jurkat cell line over-expressing human PD-1 (Homo sapiens, UniProt Q15116)
T1 construct: expressed in transfected cells; host or cells: Jurkat
T1 sequence (Q15116 25-288): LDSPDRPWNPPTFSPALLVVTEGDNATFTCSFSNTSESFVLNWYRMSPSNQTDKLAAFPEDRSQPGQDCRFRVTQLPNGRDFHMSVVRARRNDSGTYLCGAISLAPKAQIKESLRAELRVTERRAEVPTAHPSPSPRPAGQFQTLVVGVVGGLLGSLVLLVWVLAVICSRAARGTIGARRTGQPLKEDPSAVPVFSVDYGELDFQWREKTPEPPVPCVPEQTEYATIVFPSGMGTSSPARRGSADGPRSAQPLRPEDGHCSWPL
Test: Jurkat-PD-1 Cell Binding High-Content Screening Assay (CBA): Method 3 (Alexa fluor-647 labeled PD-L1-Ig)
Conditions: Jurkat-PD-1 cells, Alexa fluor-647 labeled PD-L1-Ig 177 nM; nM; read-out: CBA Method 3
In short: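 Readout by high-content imaging of PFA-fixed, Hoechst-stained cells after 1 h with 177 nM (final) Alexa fluor-647 PD-L1-Ig. Compound was added first to hPD-1 Jurkat cells in RPMI plus 10% FCS for 2 h at 37 °C.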

IC50 | Structure (SMILES)
1 nM | CCCC[C@@H]1NC(=O)CSC[C@@H](C(=O)N[C@@H](CCN)C(N)=O)NC(=O)[C@H](CCCN)NC(=O)[C@H](C(C)C)NC(=O)[C@H](CC2CCCCC2)NC(=O)[C@H](CCN)NC(=O)[C@@H](CC(C)C)NC(=O)[C@H](C)N(C)C(=O)[C@H](CCC(N)=O)NC(=O)[C@H](Cc2ccc(-c3ccccc3)cc2)NC(=O)[C@H](Cc2ccc(-c3ccc(C(=O)O)cc3)cc2)NC(=O)[C@H](Cc2cccc(C(F)(F)F)c2)NC(=O)[C@H](CC(=O)O)NC(=O)[C@H](Cc2ccc(C(=O)O)cc2)NC1=O [Example 5166] ({CH2CO}-[Nle][Phe(4-COOH)]D[Phe(3-CF3)][Bip(4'-COOH)][Bip]Q[NMeA][dL][Dab][Cha]V[Orn]C[Dab]-NH2; thioether N-14)
0.3 nM | CC(C)C[C@H]1NC(=O)[C@H](C)N(C)C(=O)[C@H](CCC(N)=O)NC(=O)[C@H](Cc2ccc(-c3ccccc3)cc2)NC(=O)[C@H](Cc2ccc(-c3ccc(C(=O)O)cc3)cc2)NC(=O)[C@H](Cc2cccc(C(F)(F)F)c2)NC(=O)[C@H](CC(=O)O)NC(=O)[C@H](Cc2ccc(C(=O)O)cc2)NC(=O)[C@H](Cc2ccc(OCC(=O)O)cc2)NC(=O)CSC[C@@H](C(=O)N[C@@H](CCN)C(N)=O)NC(=O)[C@H](CCCN)NC(=O)[C@H](C(C)C)NC(=O)[C@H](CC2CCCCC2)NC(=O)[C@H](CCN)NC1=O [Example 5167] ({CH2CO}-Y(Carboxymethyl)[Phe(4-COOH)]D[Phe(3-CF3)][Bip(4'-COOH)][Bip]Q[NMeA][dL][Dab][Cha]V[Orn]C[Dab]-NH2; thioether N-14)
1.4 nM | Cc1cccc(C[C@@H]2NC(=O)[C@H](CC(=O)O)NC(=O)[C@H](Cc3ccc(OCC(=O)O)cc3)NC(=O)[C@H](Cc3ccc(OCC(=O)O)cc3)NC(=O)CSC[C@@H](C(=O)N[C@@H](CCN)C(N)=O)NC(=O)[C@H](CCCN)NC(=O)[C@H](C(C)C)NC(=O)[C@H](CC3CCCCC3)NC(=O)[C@H](CCN)NC(=O)[C@@H](CC(C)C)NC(=O)[C@H](C)N(C)C(=O)[C@H](CCC(N)=O)NC(=O)[C@H](Cc3ccc(-c4ccccc4)cc3)NC(=O)[C@H](Cc3ccc(C(=O)O)cc3)NC2=O)c1 [Example 5168] ({CH2CO}-Y(Carboxymethyl)Y(Carboxymethyl)D[Phe(3-Me)][Phe(4-COOH)][Bip]Q[NMeA][dL][Dab][Cha]V[Orn]C[Dab]-NH2; thioether N-14)
8.9 nM | Cc1cccc(C[C@@H]2NC(=O)[C@H](CC(=O)O)NC(=O)[C@H](Cc3ccc(OCC(=O)O)cc3)NC(=O)[C@H](CC(C(=O)O)C(=O)O)NC(=O)CSC[C@@H](C(=O)N[C@@H](CCN)C(N)=O)NC(=O)[C@H](CCCN)NC(=O)[C@H](C(C)C)NC(=O)[C@H](CC3CCCCC3)NC(=O)[C@H](CCN)NC(=O)[C@@H](CC(C)C)NC(=O)[C@H](C)N(C)C(=O)[C@H](CCC(N)=O)NC(=O)[C@H](Cc3ccc(-c4ccccc4)cc3)NC(=O)[C@H](Cc3ccc(C(=O)O)cc3)NC2=O)c1 [Example 5169] ({CH2CO}-[Gla]Y(Carboxymethyl)D[Phe(3-Me)][Phe(4-COOH)][Bip]Q[NMeA][dL][Dab][Cha]V[Orn]C[Dab]-NH2; thioether N-14)
5.9 nM | Cc1cccc(C[C@@H]2NC(=O)[C@H](CC(=O)O)NC(=O)[C@H](Cc3ccc(OCC(=O)O)cc3)NC(=O)[C@H](CCC(=O)O)NC(=O)CSC[C@@H](C(=O)N[C@@H](CCN)C(N)=O)NC(=O)[C@H](CCCN)NC(=O)[C@H](C(C)C)NC(=O)[C@H](CC3CCCCC3)NC(=O)[C@H](CCN)NC(=O)[C@@H](CC(C)C)NC(=O)[C@H](C)N(C)C(=O)[C@H](CCC(N)=O)NC(=O)[C@H](Cc3ccc(-c4ccccc4)cc3)NC(=O)[C@H](Cc3ccc(C(=O)O)cc3)NC2=O)c1 [Example 5170] ({CH2CO}-EY(Carboxymethyl)D[Phe(3-Me)][Phe(4-COOH)][Bip]Q[NMeA][dL][Dab][Cha]V[Orn]C[Dab]-NH2; thioether N-14)

Source: patent publication US20240409585A1, “MACROCYCLIC IMMUNOMODULATORS” (priority 2021, published 2024)
